In the RepoRT retention time repository (doi:10.1016/j.chroma.2014.05.003):

Assay: RP, Agilent ZORBAX Eclipse Plus C18, 50 × 4.6 mm, 1.8 µm, 0.5 mL/min, estimated dead time 1.1 min; A: water + 0.1% formic acid; B: acetonitrile + 0.1% formic acid; gradient (min/%B) 0/10 3/10 25/100 28/100
Conditions: stereoisomer not certain

Row | Structure (SMILES) | LC retention time [min]
1 | Cn1c(=O)c2c(ncn2C)n(C)c1=O | 5.08
2 | COc1cc(Cc2cnc(N)nc2N)cc(OC)c1OC | 5.6
3 | CCOP(=S)(OCC)Oc1cc(C)nc(C(C)C)n1 | 18.8
4 | COc1ccc2c3c1OC1C(O)C=CC4C(C2)N(C)CCC341 (centres undefined) | 3.16
5 | COC(=O)Nc1nc2ccc(Sc3ccccc3)cc2[nH]1 | 12.6
6 | CCNc1nc(NC(C)(C)C)nc(OC)n1 | 9.32
7 | CC1=NNC(=O)N(N=Cc2cccnc2)C1 | 1.4
8 | CCC(C)C1OC2(C=CC1C)CC1CC(CC=C(C)C(OC3CC(OC)C(OC4CC(OC)C(NC(C)=O)C(C)O4)C(C)O3)C(C)C=CC=C3COC4C(O)C(C)=CC(C(=O)O1)C34O)O2 (centres undefined) | 21.2
9 | CC1(C)SC2C(NC(=O)Cc3ccccc3)C(=O)N2C1C(=O)O (centres undefined) | 10.8
10 | O=NN1CCCCC1 | 6.57
11 | CNC(=O)ON=CC(C)(C)S(C)(=O)=O | 4.81
12 | COCC(=O)N(c1c(C)cccc1C)N1CCOC1=O | 10.9
13 | Cc1cc(C2CC2)nc(Nc2ccccc2)n1 | 14.3
14 | CCOP(=S)(OCC)SCSP(=S)(OCC)OCC | 21.7
15 | CNc1nc(NC(C)C)nc(SC)n1 | 8.8
16 | CCN(CC)N=O | 15.9
17 | CSc1nc(NC2CC2)nc(NC(C)(C)C)n1 | 12.6
18 | Cc1cccc(C)c1N | 5.94
19 | CCC1OC(=O)C(C)C(OC2CC(C)(OC)C(O)C(C)O2)C(C)C(OC2OC(C)CC(N(C)C)C2O)C(C)(OC)CC(C)C(=O)C(C)C(O)C1(C)O (centres undefined) | 11.1
20 | COc1cccc(C(=O)NN(C(=O)c2cc(C)cc(C)c2)C(C)(C)C)c1C | 16.6
21 | CCCCCCCCCCCCCC[N+](C)(C)Cc1ccccc1 | 18.4
22 | NC(N)=Nc1nc(CSCCC(N)=NS(N)(=O)=O)cs1 | 1.81
23 | COC(=O)C(C)N(C(=O)Cc1ccccc1)c1c(C)cccc1C (centres undefined) | 18.1

Row | Structure (SMILES) | LC retention time [min]
24 | O=C1CCc2cccc3c2N1CC3 | 10.2
25 | CCSC(=O)N1CCCCCC1 | 16
26 | COC(=O)c1ccccc1CS(=O)(=O)NC(=O)Nc1nc(OC)cc(OC)n1 | 14.2
27 | CCN(CC)C(=O)C(C)Oc1cccc2ccccc12 (centres undefined) | 16.3
28 | CCC(C)(CC)c1cc(NC(=O)c2c(OC)cccc2OC)on1 | 16.5
29 | CCOC(=O)CC(SP(=S)(OC)OC)C(=O)OCC (centres undefined) | 17
30 | Cc1onc(-c2ccccc2)c1C(=O)NC1C(=O)N2C1SC(C)(C)C2C(=O)O (centres undefined) | 12.8
31 | CC(N)Cc1ccccc1 (centres undefined) | 3.82
32 | CNC(=O)Oc1cccc2c1OC(C)(C)C2 | 12.1
33 | Cc1cc(NS(=O)(=O)c2ccc(N)cc2)no1 | 9.06
34 | CCNc1nc(NC(C)(C)C)nc(SC)n1 | 18.3
35 | COC(=O)C1C(OC(=O)c2ccccc2)CC2CCC1N2C (centres undefined) | 7.3
36 | CCCCN(CC)C(=O)SCCC | 19.6
37 | CC1(C)SC2C(NC(=O)C(N)c3ccccc3)C(=O)N2C1C(=O)O (centres undefined) | 7.93
38 | CCOP(=S)(OCC)SCn1nnc2ccccc2c1=O | 17.4
39 | CSC(C)=NOC(=O)N(C)SN(C)C(=O)ON=C(C)SC | 11.8
40 | Cc1cc(C)c(C2=C(OC(=O)CC(C)(C)C)C3(CCCC3)OC2=O)c(C)c1 | 23.1
41 | Nc1ccc(S(=O)(=O)Nc2ncccn2)cc1 | 4.16
42 | COc1nc(NC(C)C)nc(NC(C)C)n1 | 9.02
43 | COP(=O)(NC(C)=O)SC (centres undefined) | 1.86
44 | CCC1OC(=O)CC(O)C(C)C(OC2OC(C)C(OC3CC(C)(O)C(O)C(C)O3)C(N(C)C)C2O)C(CC=O)CC(C)C(=O)C=CC(C)=CC1COC1OC(C)C(O)C(OC)C1OC (centres undefined) | 10.1
45 | CN1C2CCC1CC(OC(=O)C(CO)c1ccccc1)C2 (centres undefined) | 6.29
46 | CCCN(CCC)c1c([N+](=O)[O-])cc(S(N)(=O)=O)cc1[N+](=O)[O-] | 17

Row | Structure (SMILES) | LC retention time [min]
47 | Nc1ncn[nH]1 | 1.36
48 | CN1C(=O)CCC1c1cccnc1 (centres undefined) | 1.35
49 | Cc1cc(=O)n(-c2ccccc2)n1C | 6.97
50 | CC(=O)Nc1ccc(O)cc1 | 2.66
51 | CCSC(=O)N(CC)C1CCCCC1 | 19.8
52 | CNCC(O)c1cccc(O)c1 (centres undefined) | 1.36
53 | CC(Cc1ccc(C(C)(C)C)cc1)CN1CC(C)OC(C)C1 (centres undefined) | 12.4
54 | Nc1nc(N)nc(NC2CC2)n1 | 1.36
55 | CCOP(=S)(Oc1ccc([N+](=O)[O-])cc1)c1ccccc1 (centres undefined) | 20
56 | C#CC1(O)CCC2C3CCc4cc(O)ccc4C3CCC21C (centres undefined) | 14.3
57 | CCOP(=S)(OCC)Oc1cnc2ccccc2n1 | 18.2
58 | CCC(C)C(=O)OC1CCC=C2C=CC(C)C(CCC3CC(O)CC(=O)O3)C21 (centres undefined) | 15.7
59 | COC1C(OC(C)=O)CC(=O)OC(C)CC=CC=CC(O)C(C)CC(CC=O)C1OC1OC(C)C(OC2CC(C)(O)C(OC(=O)CC(C)C)C(C)O2)C(N(C)C)C1O (centres undefined) | 12
60 | COCC(=O)N(c1c(C)cccc1C)C(C)C(=O)OC (centres undefined) | 12.9
61 | CCCOC(=O)NCCCN(C)C | 2.3
62 | CCOc1cc(OP(=S)(OC)OC)nc(CC)n1 | 18.8
63 | COC(=O)NS(=O)(=O)c1ccc(N)cc1 | 5.43
64 | CC(C)(C)C(O)C(Oc1ccc(-c2ccccc2)cc1)n1cncn1 (centres undefined) | 16.6
65 | CCOc1ccc(NC(C)=O)cc1 | 9.38
66 | Cc1nnc(NS(=O)(=O)c2ccc(N)cc2)s1 | 7.12
67 | CCCN(CC)CC1COC2(CCC(C(C)(C)C)CC2)O1 (centres undefined) | 12.5
68 | CC(C)(c1ccc(O)cc1)c1ccc(O)cc1 | 13.1
69 | CON=C(C(=O)NC1C(=O)N2C(C(=O)O)=C(COC(C)=O)CSC12)c1csc(N)n1 (centres undefined) | 6.29

Row | Structure (SMILES) | LC retention time [min]
70 | COc1cc(C2c3cc4c(cc3C(OC3OC5COC(C)OC5C(O)C3O)C3COC(=O)C23)OCO4)cc(OC)c1OP(=O)(O)O (centres undefined) | 16.1
71 | Cc1nc(N(C)C)nc(OC(=O)N(C)C)c1C | 6.86
72 | CN1CCC23c4c5ccc(O)c4OC2C(O)C=CC3C1C5 (centres undefined) | 1.47
73 | COC=C(C(=O)OC)c1ccccc1Oc1cc(Oc2ccccc2C#N)ncn1 | 15.8
74 | CS(=O)(=O)Nc1nc2cc(-c3ccc([N+](=O)[O-])cc3)c([N+](=O)[O-])cc2[nH]c1=O | 11.5
75 | CNC(=O)ON=C(C)SC | 5.39
76 | c1ccc(Nc2ccccc2)cc1 | 17.2
77 | O=NN1CCOCC1 | 2.21
78 | CC12CCC(=O)C=C1CCC1C2CCC2(C)C(O)CCC12 (centres undefined) | 13.7
79 | CNC(=O)Oc1cccc(C)c1 | 11
80 | CCC1CCCC(OC2CCC(N(C)C)C(C)O2)C(C)C(=O)C2=CC3C(C=CC4CC(OC5OC(C)C(OC)C(OC)C5OC)CC43)C2CC(=O)O1 (centres undefined) | 14.9
81 | Cc1ccc(C)c(OCCCC(C)(C)C(=O)O)c1 | 18.1
82 | Cc1cc(C)nc(Nc2ccccc2)n1 | 11.6
83 | CN(C)C(=O)Nc1cccc(OC(=O)NC(C)(C)C)c1 | 11.6
84 | CCOc1ccc2c3c1OC1C(O)C=CC4C(C2)N(C)CCC341 (centres undefined) | 5.83
85 | CCC1CCCC(OC2CCC(N(C)C)C(C)O2)C(C)C(=O)C2=CC3C(C=C(C)C4CC(OC5OC(C)C(OC)C(OC)C5OC)CC43)C2CC(=O)O1 (centres undefined) | 14.2
86 | CCC1OC(=O)C(C)C(OC2CC(C)(OC)C(O)C(C)O2)C(C)C(OC2OC(C)CC(N(C)C)C2O)C(C)(O)CC(C)C(=O)C(C)C(O)C1(C)O (centres undefined) | 9.73
87 | CNC(=O)Oc1cccc2c1OC(C)(C)C2O (centres undefined) | 7.87
88 | CC(C)NCC(O)COc1cccc2[nH]ccc12 (centres undefined) | 5.55
89 | CN(C)c1ccc(C(c2ccccc2)c2ccc(N(C)C)cc2)cc1 | 12.6
90 | CC12CCC3c4ccc(O)cc4CCC3C1CC(O)C2O (centres undefined) | 9.36
91 | CN1C2CCC1C(C(=O)O)C(OC(=O)c1ccccc1)C2 (centres undefined) | 6.61
92 | CCOC(=O)CCN(SN(C)C(=O)Oc1cccc2c1OC(C)(C)C2)C(C)C | 20.8

Row | Structure (SMILES) | LC retention time [min]
93 | CCOP(=O)(SC(C)CC)N1CCSC1=O (centres undefined) | 12.7
94 | CCCC1CC(C(=O)NC(C(C)O)C2OC(SC)C(O)C(O)C2O)N(C)C1 (centres undefined) | 3.66
95 | CC(C)(C)c1ccc(CCOc2ncnc3ccccc23)cc1 | 22
96 | CCCCCCCCCCCC[N+](C)(C)Cc1ccccc1 | 16.2
97 | CC(C(=O)O)c1cccc(C(=O)c2ccccc2)c1 (centres undefined) | 13.7
98 | O=NN1CCCC1 | 2.66
99 | CC(C)NCC(O)COc1cccc2ccccc12 (centres undefined) | 9.19
100 | Cn1c(=O)c2[nH]cnc2n(C)c1=O | 2.8
101 | CC(C)C1(C)N=C(c2ncccc2C(=O)O)NC1=O (centres undefined) | 16.5
102 | CC1=C(C(=O)Nc2ccccc2)SCCO1 | 13.1
103 | CNC(=O)CSP(=S)(OC)OC | 9
104 | c1coc(-c2nc3ccccc3[nH]2)c1 | 5.19
105 | COC(=O)c1ccc(C)cc1C1=NC(C)(C(C)C)C(=O)N1 (centres undefined) | 9.12
106 | CCOC(=O)CC(SP(=O)(OC)OC)C(=O)OCC (centres undefined) | 11.8
107 | CCC(C)c1ccccc1OC(=O)NC (centres undefined) | 15
108 | CC(COc1ccc(Oc2ccccc2)cc1)Oc1ccccn1 (centres undefined) | 21.2
109 | CN(C)C(=O)Nc1ccccc1 | 7.72
110 | CNC(C)Cc1ccc2c(c1)OCO2 (centres undefined) | 5.39
111 | CCCCC1C(=O)N(c2ccccc2)N(c2ccccc2)C1=O | 17.2
112 | CCOP(=O)(NC(C)C)Oc1ccc(SC)c(C)c1 (centres undefined) | 15.4
113 | CN(C)CCOC(c1ccccc1)c1ccccc1 | 9.81
114 | Oc1ccccc1-c1ccccc1 | 16.3
